# Measured values as given in patent US5747448A, “Derivatives of cyclodepsipeptide PF 1022” (Meiji Seika Kaisha, Ltd., priority 1993, dated 1998).
# Where two headings read alike, the source gives them in different places.
# Tests used:
# fowl roundworms = test: Fowl Roundworm Eliminating Test; format: in vivo; conditions: infected fowls, worms counted to day 7
# Protocol: Test 1 Fowl Roundworm Eliminating Test Fowls (three fowls per group), which had been artificially infected with fowl roundworms and whose infection therewith had been confirmed by scatoscopy, were used as experimental animals. Upon administration of each test substance, the test substance weighed in a dose (mg) accurately calculated on the basis of the body weight (kg) of each fowl was suspended in carboxymethylcellulose-containing water, and the resulting suspension was administered orally as a single dose unit using a stomach tube. After the administration, the worms eliminated from the fowls were counted daily. Seven days after the administration, the fowl was sacrificed and autopsied and the worms remaining in its intestinal tract were counted. The percent elimination was calculated in accordance with the following calculation equation: [formula] Each test substance is indicated by the corresponding substance code name shown above in Table 1.
# [1] = tested on: Trichostrongylus colubriformis; test: In vivo Anthelmintic Activity Test on Nematodes in sheep (egg excretion); design: key: "0" when there were no anthelmintic activities; "2" when excretion of parasite's eggs was observed; "3" when excretion of parasite's eggs stopped, that is, parasitic worms were removed completely; conditions: parasitic worms T, oral gelatin capsule, 0.5 mg/kg
# Excerpt: (§1) Test 2 In vivo Anthelmintic Activity Test on Nematodes To each sheep which had artificially been infected with Trichostrongylus colubriformis (hereinafter abbreviated as "T") and Haemonchus contortus (hereinafter abbreviated as […]), respectively, a test substance weighed in a dose accurately calculated from the weight […] of the sheep was orally administered in the form of a gelatin capsule. The number of parasite's eggs excreted with feces from the sheep was counted quantitatively before and after the administration so that the degree of anthelmintic effects was determined. The anthelmintic effects are evaluated by rated numeral 0, 1, 2 or 3. The anthelmintic effects are rated "0" when there were no anthelmintic activities, "2" when excretion of parasite's eggs was observed, and "3" when excretion of parasite's eggs stopped, that is, parasitic worms were removed completely.
# Haemonchus contortus = test: as above; design: key: "0" when there were no anthelmintic activities; "2" when excretion of parasite's eggs was observed; "3" when excretion of parasite's eggs stopped, that is, parasitic worms were removed completely; conditions: parasitic worms H, oral gelatin capsule
# Excerpt: as §1
# [2] = tested on: Nippostrongylus brasillensis; test: Anthelmintic effects on a rat intestinal nematode (N. brasillensis-infected rats); format: in vivo; conditions: male Wistar rats; for Number of remaining worms (average value ± SD): 10 mg/kg p.o. 7 days after inoculation, autopsy 10 days after inoculation; for % Effectiveness: 10 mg/kg p.o., compared with infected control group
# Protocol: Anthelmintic effects of certain PF1022 derivatives on a rat intestinal nematode were tested in accordance with the following method.
# Sixteen male Wistar rats were divided into eight groups (two rats per group), and about 2,000 larval worms of Nippostrongylus brasillensis were hypodermically inoculated per rat. Seven days after the inoculation, PF1022, PF1022E, PF1022-002, PF1022-003, PF1022-209, PF1022-218 and PF1022-219 were, as test substances, forcedly administered p.o. to the rats in the groups, respectively, in an amount of 10 mg/kg per rat. Upon administration, each test substance (8 mg) was dissolved in 0.2 ml of dimethyl sulfoxide and then, the resultant solution was diluted with distilled water to give a 2 ml suspension. Ten days after the inoculation,the rats were each subjected to autopsy and imaginal worms parasitic on the small intestines were counted.
# As the test results, the average of remaining worms in each of the eight groups and the percent effectiveness of the test substance in each group as compared with that of the infected control group are shown in Table 4.
# [3] = amide bond, 24-membered ring, THF/DMF
smiles,measurement,setting,value
"CC(C)C[C@H]1C(=O)O[C@H](Cc2ccccc2)C(=O)N(C)[C@@H](CC(C)C)C(=O)O[C@H](C)C(=O)N(C)[C@@H](CC(C)C)C(=O)O[C@H](Cc2ccccc2)C(=O)N(C)[C@@H](CC(C)C)C(=O)O[C@H](C)C(=O)N1C [PF1022, Cyclo-(L-MeLeu-D-Lac-L-MeLeu-D-PhLac-L-MeLeu-D-Lac-L-MeLeu-D-PhLac), reference compound]",% Elimination,fowl roundworms; single oral dose 0.5 mg/kg,50-70%
same,% Elimination,fowl roundworms; single oral dose 1.0 mg/kg,60-86%
same,% Elimination,fowl roundworms; single oral dose 2.0 mg/kg,100%
same,Degree of effects,[1],3
same,Degree of effects,Haemonchus contortus; 0.05 mg/kg,3
same,Number of remaining worms (average value ± SD),[2],403 ± 32.5
same,% Effectiveness,[2]; 10 mg/kg,80%
same,% Effectiveness,"[2]; listed as PF 1022, 10 mg/kg",80.2%
"CC(C)C[C@H]1OC(=O)[C@H](CC(C)C)N(C)C(=O)[C@@H](C)OC(=O)[C@H](CC(C)C)N(C)C(=O)[C@@H](Cc2ccccc2)OC(=O)[C@H](CC(C)C)N(C)C(=O)[C@@H](C)OC(=O)[C@H](CC(C)C)N(C)C1=O [PF1022-003, cyclo-(-L-MeLeu-D-Lac-L-MeLeu-D-PhLac-L-MeLeu-D-Lac-L-MeLeu-D-LEUA-)]","ring closure, isolated yield","[3]; from H-MeLeu-dLEUA-MeLeu-dLac-MeLeu-dPhLac-MeLeu-dLac-OH, EDCI.HCl/HOBt/NMM/KCl/CsCl, 3 steps",44%
same,% Elimination,fowl roundworms; single oral dose 10 mg/kg,76%
same,Number of remaining worms (average value ± SD),[2],689 ± 48.1
same,% Effectiveness,[2],66.1%
"CC(C)CC1C(=O)OC(Cc2ccc(OCc3ccccc3)cc2)C(=O)N(C)C(CC(C)C)C(=O)OC(C)C(=O)N(C)C(CC(C)C)C(=O)OC(Cc2ccc(OCc3ccccc3)cc2)C(=O)N(C)C(CC(C)C)C(=O)OC(C)C(=O)N1C [PF1022-201, cyclo-(L-MeLeu-D-Lac-L-MeLeu-D-TYRA(OBn))2]",Degree of effects,Haemonchus contortus; 0.1 mg/kg,1
same,Degree of effects,Haemonchus contortus; 0.25 mg/kg,3
"CC(C)C[C@H]1C(=O)O[C@H](Cc2ccc(OC(C)(C)C)cc2)C(=O)N(C)[C@@H](CC(C)C)C(=O)O[C@H](C)C(=O)N(C)[C@@H](CC(C)C)C(=O)O[C@H](Cc2ccccc2)C(=O)N(C)[C@@H](CC(C)C)C(=O)O[C@H](C)C(=O)N1C [PF1022-215, cyclo-(L-MeLeu-D-PhLac-L-MeLeu-D-Lac-L-MeLeu-D-TYRA(O-t-Bu)-L-MeLeu-D-Lac)]",% Elimination,fowl roundworms; single oral dose 1.0 mg/kg,37%
same,% Elimination,fowl roundworms; single oral dose 2.0 mg/kg,98%
same,Degree of effects,Haemonchus contortus; 0.25 mg/kg,3
"CC(C)C[C@@H]1NC(=O)[C@@H](C)OC(=O)[C@H](CC(C)C)N(C)C(=O)[C@@H](Cc2ccccc2)OC(=O)[C@H](CC(C)C)NC(=O)[C@@H](C)OC(=O)[C@H](CC(C)C)N(C)C(=O)[C@@H](Cc2ccccc2)OC1=O [PF1022-219, cyclo-(L-MeLeu-D-Lac-L-Leu-D-PhLac)2]",Degree of effects,[1],3
same,Number of remaining worms (average value ± SD),[2],2084.5
same,% Effectiveness,[2],0%
CC(C)C[C@H]1C(=O)O[C@H](C(C)C)C(=O)N(C)[C@@H](CC(C)C)C(=O)O[C@H](Cc2ccccc2)C(=O)N(C)[C@@H](CC(C)C)C(=O)O[C@H](C(C)C)C(=O)N(C)[C@@H](CC(C)C)C(=O)O[C@H](Cc2ccccc2)C(=O)N1C [cyclo(L-MeLeu-D-VALA-L-MeLeu-D-PhLac)2],"ring closure, isolated yield","[3]; from H-MeLeu-dVALA-MeLeu-dPhLac-MeLeu-dVALA-MeLeu-dPhLac-OH, EDCI.HCl/HOBt/NMM/LiCl/KCl/NaCl/CsCl, 0.9 mM, 25.0 °C",56.5%
CC(C)C[C@H]1C(=O)O[C@H](C)C(=O)N(C)[C@@H](CC(C)C)C(=O)O[C@H](C)C(=O)N(C)[C@@H](CC(C)C)C(=O)O[C@H](C)C(=O)N(C)[C@@H](CC(C)C)C(=O)O[C@H](C)C(=O)N1C [cyclo-(L-MeLeu-D-Lac-)4],"ring closure, isolated yield","[3]; from H-MeLeu-dLac-MeLeu-dLac-MeLeu-dLac-MeLeu-dLac-OH, EDCI.HCl/HOBt/NMM/KCl/CsCl, 1.0 mM, 3 steps",86%
CC(C)C[C@H]1C(=O)O[C@H](Cc2ccc(OCc3ccccc3)cc2)C(=O)N(C)[C@@H](CC(C)C)C(=O)O[C@H](C)C(=O)N(C)[C@@H](CC(C)C)C(=O)O[C@H](Cc2ccc(OCc3ccccc3)cc2)C(=O)N(C)[C@@H](CC(C)C)C(=O)O[C@H](C)C(=O)N1C [cyclo-(L-MeLeu-D-Lac-L-MeLeu-D-TYRA(OBn))2],"ring closure, isolated yield","[3]; from H-MeLeu-dLac-MeLeu-dTYRA(OBn)-MeLeu-dLac-MeLeu-dTYRA(OBn)-OH, EDCI.HCl/HOBt/NMM/LiCl/NaCl/KCl/CsCl, 0.66 mM, 25.0 °C",60.5%
